Experimental data: PubChem BioAssay AID602178 (NMMLSC, 2012)
Calls of active or inactive are those of the source. How the calls were made is not given here.

Molecular target: Lethal factor (Bacillus anthracis) (UniProt P15917)
Assay: Bacillus anthracis LF protease inhibitors, dose response, biochemical, multiplex microsphere, cherry pick 1 compounds (AID 602178)
Settings: multiplex microsphere protease cleavage assay, LF inhibition

Chain of Lethal factor (Bacillus anthracis) (P15917 whole entry, looked up): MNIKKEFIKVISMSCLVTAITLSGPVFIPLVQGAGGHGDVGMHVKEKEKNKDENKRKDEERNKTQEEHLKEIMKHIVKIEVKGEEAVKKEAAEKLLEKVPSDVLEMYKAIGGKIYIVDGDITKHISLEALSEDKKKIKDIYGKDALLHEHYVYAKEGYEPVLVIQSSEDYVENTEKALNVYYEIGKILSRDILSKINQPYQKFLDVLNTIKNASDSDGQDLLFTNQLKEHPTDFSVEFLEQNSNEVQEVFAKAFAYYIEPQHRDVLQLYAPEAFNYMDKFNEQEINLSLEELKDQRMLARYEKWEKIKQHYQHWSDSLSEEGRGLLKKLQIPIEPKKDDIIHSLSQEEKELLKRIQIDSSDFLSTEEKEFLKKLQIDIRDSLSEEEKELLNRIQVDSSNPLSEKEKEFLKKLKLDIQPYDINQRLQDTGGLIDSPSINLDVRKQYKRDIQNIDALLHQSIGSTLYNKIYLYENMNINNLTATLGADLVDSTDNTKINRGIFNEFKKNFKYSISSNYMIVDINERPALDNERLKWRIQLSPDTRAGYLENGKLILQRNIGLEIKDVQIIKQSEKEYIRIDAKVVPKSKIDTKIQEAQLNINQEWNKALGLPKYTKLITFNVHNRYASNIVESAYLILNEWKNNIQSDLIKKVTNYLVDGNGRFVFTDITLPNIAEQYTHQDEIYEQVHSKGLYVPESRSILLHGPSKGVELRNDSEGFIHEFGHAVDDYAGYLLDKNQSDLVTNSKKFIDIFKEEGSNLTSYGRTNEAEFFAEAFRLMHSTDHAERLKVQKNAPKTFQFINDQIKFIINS

In the case of `Oc1[nH]c(N=C2N=c3ccccc3=N2)c2ccccc12`, the EC50 is reported as > 20 µM (inactive).
